The values below come from patent US8637521B2, “Substituted piperazin-2,5-diones and their use as multifunctional bioactive compounds” (priority 2006, dated 2014).

Where “and” joins values, the source holds several entries; their conditions need not be identical. Identical values can stand only once.

Test [1] relates to CFU-S population in the bone marrow. The experiment in a line: Spleen colony formation (CFU-S) by bone marrow cells of peptide-treated intact donor mice. In kind it is in vivo, (CBA×C57 B1) F1 mice. Conditions: for Colony count CFU-8 - S per 10^5 cells M ± m: control 9.9 ± 0.7; for Colony count CFU-8 - S per 10^5 cells M ± M: control 11.2 ± 0.4. The method, then: The effect of tested substances on intact bone marrow was studied in vivo. […] Two days after administration of preparation, the mice were killed. Bone marrow suspension was prepared and injected intravenously to lethally irradiated mice. The colony forming activity was evaluated at day 8. Test animals were (CBA×C57 B1) F1 mice (30 mice per trial, average from 3 tests).

Test [2] concerns Anti-OVA antibody titers. The experiment in a line: Adjuvant activity, anti-OVA antibody titers by ELISA (Example 8). The note with it: for Anti-protein antibody titer (pooled sera) / Stimulation index / Anti-protein antibody titer (for individual sera): Table 7. In kind it is in vivo, Balb/c mice. As to the method: Adjuvant activity was tested on 11 groups of Balb/c mice (obtained from Stolbovaya Breeding Station). Each group consisted of 7 animals. Three immunizations were performed as follows:
• Group 1—ovalbumin 25 micrograms per animal (Mouse Nos. 1 to 7) • Group 2—ovalbumin 25 micrograms per animal+CFA (Complete Freund's adjuvant) (Mouse Nos. 8 to 14) • Group 3—ovalbumin 25 micrograms per animal+adjuvant of compound 33a 100 micrograms per animal (Mouse Nos. 15 to 21) • Group 4—ovalbumin 25 micrograms per animal+adjuvant of compound 33a 10 micrograms per animal (Mouse Nos. […]) • Group 5—ovalbumin 25 micrograms per animal+adjuvant of compound 33a 1 microgram per animal (Mouse Nos. […]) • Group 6—ovalbumin 25 micrograms per animal+adjuvant of compound 33b 100 micrograms per animal (No. 36 to 42) • Group 7—ovalbumin 25 micrograms per animal+adjuvant of compound 33b 10 micrograms per animal (Mouse Nos. 43 to 49) • Group 8—ovalbumin 25 micrograms per animal+adjuvant of compound 33b 1 microgram per animal (Mouse Nos. 50 to 56) • Group 9—ovalbumin 25 micrograms per animal+adjuvant of compound 17 100 micrograms per animal (Mouse Nos. 57 to 63) • Group 10—ovalbumin 25 micrograms per animal+adjuvant of compound 1710 micrograms per animal (Mouse Nos. 64 to 70) • Group 11—ovalbumin 25 micrograms per animal+adjuvant of compound 171 microgram per animal (Mouse Nos. 71 to 77) Second Immunization:
The same set 14 days after first immunization by injection of 12.5 micrograms of ovalbumin/mouse to mouse nos. 1 to 77.
The same set 28 days after first immunization by injection of 12.5 micrograms of ovalbumin/mouse to mouse nos. 1 to 77.
On day 35 after first immunization, blood samples from each mouse were collected.
OVA (10 micrograms/ml) solution in 0.05 M sodium carbonate buffer (pH 9.5) was added to plate wells, 0.1 ml per well and incubated at 4° C. for 16 hours. The OVA solution was then removed and the plate was washed 4 times with PBS containing 0.05% Tween-20. Such washing was performed after each incubation stage. Serial twofold dilutions of sera (starting from 1:100 or 1:1000) were added to the wells, 0.1 ml per well and incubated at 37° C. for 1 hour followed by incubation (1 hour, 37° C.) with HRP-conjugated goat anti-mouse IgG antibodies (0.1 ml, 1 mg/ml in PBS) and then with a 0.1 mL substrate solution −0.05% H2O2 and 0.05% o-phenylene diamine in 0.05M sodium citrate buffer with a pH of 4.5. The reaction was stopped by adding 100 μl of 12.5% H2SO4. Absorbance was measured at a wavelength of 492 nm using a Multiscan Plus MKII (Flow Laboratories, Great Britain). Significant anti-protein antibody titer (for individual sera) was assessed as the serum dilution produced an absorbance value of more than 0.1 ODU and the minimum exceeds three times the control level. The antibody titer was presented and −log of dilution (FIGS. 2 and 3). The stimulation index for pooled sera was calculated by dividing the test pooled sera dilution producing OD=1 by the dilution of pooled sera from mice immunized without the adjuvant, producing OD=1. The results of the adjuvant activities of cyclo-L-Ala-L-Glu-(L-Trp-OH) (Compound 17), cyclo-L-Lys(N-acetyl-Glycosamine-N-acetyl-muramil)-L-Glu-(L-Trp-OH) (Compound 33a) and cyclo-D-Lys(N-acetyl-Glycosamine-N-acetyl-muramil)-D-Glu-(L-Trp-OH) (Compound 33b) are shown in Table 7 and the adjuvant activities of cyclo [L-Lys(Palmitoyil)-L-Glu(D-Trp-OH)] (Compound 26a) and cyclo [D-Lys(Palmitoyil)-D-Glu(D-Trp-OH)] (Compound 26b) are shown in Table 8 as well as in FIG. 4 which includes the results of the adjuvant activities of cyclo-L-Lys-L-Glu-(L-Trp-OH) (compound 19). It is noted that the peptides of compounds 26a and 26b are soluble in 0.1% NH4OH at a concentration of 1 mg per 1 to 2 ml.

[3] abbreviates: Table 3, 0.2 microgram per mouse per os.
Where [4] appears, read: Table 2, donor treated i/p, colonies day 8.
Setting [5] is: 100 μg per animal, no adjuvant 4.5.
Setting [6] is: 100 μg per animal, no adjuvant = 1.
[7] abbreviates: OVA + adjuvant 1 μg per animal, −log of dilution.
The mark [8] stands for this setting: OVA + adjuvant 10 μg per animal, −log of dilution.
[9] abbreviates: OVA + adjuvant 100 μg per animal, titer as −log of dilution, one value per mouse.
Where [10] appears, read: Table 3, 0.2 microgram per mouse i/p.
[11] abbreviates: Table 3, 2.0 microgram per mouse per os.
[12] abbreviates: Table 3, 20.0 microgram per mouse per os.
Where [13] appears, read: Table 3, 200.0 microgram per mouse per os.

`COC(=O)[C@@H](Cc1c[nH]c2ccccc12)NC(=O)C[C@H]1NC(=O)[C@@H](C)NC1=O` [Compound 12, Cyclo-D-Ala-D-Asp-(D-Trp-OMe)]: in test [1] (setting [3]), the “% suppression” value is recorded as 28% and the “Colony count CFU-8 - S per 10^5 cells M ± m” value came to 8.4 ± 0.6 per 10^5 cells.

For `O=C(CCC1NC(=O)C(Cc2ccc(O)cc2)NC1=O)NC(Cc1c[nH]c2ccccc12)C(=O)O` (centres unmarked) [cyclo-DTyr-DGlu-(DTrp-OH)], in test [1] (Table 2, donor treated per os), the “% suppression” value stood at 44% and the “Colony count CFU-8 - S per 10^5 cells M ± M” value came out at 6.3 ± 0.9 per 10^5 cells.

`CC1NC(=O)C(CC(=O)NC(Cc2c[nH]c3ccccc23)C(=O)[O-])NC1=O.[Na+]` (centres unmarked) [cyclo-DAla-DAsp-(DTrp-ONa)]: in test [1] (setting [3]), the “% suppression” value is 55% and the “Colony count CFU-8 - S per 10^5 cells M ± m” value came out at 6.8 ± 0.8 per 10^5 cells.

For the compound `C[C@H]1NC(=O)[C@@H](CC(=O)N[C@H](Cc2c[nH]c3ccccc23)C(=O)O)NC1=O` [Compound 13, Cyclo-D-Ala-D-Asp-(D-Trp-OH)], in test [1] (Table 2, donor treated per os), the “% suppression” value is recorded as 26.5% and the “Colony count CFU-8 - S per 10^5 cells M ± M” value is recorded as 9.0 ± 0.2 per 10^5 cells.

On to `O=C(CCC1NC(=O)C(Cc2ccc(O)cc2)NC1=O)NC(Cc1c[nH]c2ccccc12)C(=O)[O-].[Na+]` (centres unmarked) [cyclo-DTyr-DGlu-(DTrp-ONa)], for which, in test [1] (setting [3]), the “% suppression” value was determined as 44% and the “Colony count CFU-8 - S per 10^5 cells M ± m” value was determined as 6.3 ± 0.9 per 10^5 cells.

For `COC(=O)[C@@H](Cc1c[nH]c2ccccc12)NC(=O)CC[C@H]1NC(=O)[C@@H](C)NC1=O` [Compound 1, Cyclo-D-Ala-D-Glu-(D-Trp-OMe)], in test [1] (Table 2, donor treated per os), the “% suppression” value is 40% and the “Colony count CFU-8 - S per 10^5 cells M ± M” value worked out at 7.4 ± 0.4 per 10^5 cells. In addition, in test [1] (Table 2, donor treated s/c), the “% suppression” value is recorded as 47% and the “Colony count CFU-8 - S per 10^5 cells M ± M” value is 6.8 ± 0.4 per 10^5 cells. For the same compound, in test [1] (setting [3]), the “% suppression” value amounted to 42% and the “Colony count CFU-8 - S per 10^5 cells M ± m” value is reported as 6.5 ± 0.5 per 10^5 cells.

`C[C@H]1NC(=O)[C@@H](CCC(=O)N[C@H](Cc2c[nH]c3ccccc23)C(=O)[O-])NC1=O.[Na+]` [cyclo-DAla-DGlu-(DTrp-ONa)]: the “% suppression” value in test [1] (Table 2, donor treated i/p) came to 70%; in test [1] (Table 2, donor treated per os), 58%; in test [1] (setting [3]) it was 59%. Further, the “Colony count CFU-8 - S per 10^5 cells M ± M” value in test [1] (setting [4]) is 5.0 ± 0.3 per 10^5 cells; in test [1] (Table 2, donor treated per os), 6.0 ± 0.7 per 10^5 cells. In test [1] (setting [3]), the “Colony count CFU-8 - S per 10^5 cells M ± m” value is on record as 5.3 ± 0.6 per 10^5 cells.

With `CC1NC(=O)C(CCC(=O)NC(Cc2c[nH]c3ccccc23)C(=O)[O-])NC1=O.[Na+]` (centres unmarked) [cyclo-LAla-LGlu-(DTrp-ONa)], the “% suppression” value in test [1] (Table 2, donor treated i/p) came to 20%. In addition, the “Colony count CFU-8 - S per 10^5 cells M ± M” value in test [1] (setting [4]) was found to be 8.8 ± 0.2 per 10^5 cells.

Turning to `CC(=O)N[C@H]1[C@H](O[C@H]2[C@H](O[C@H](C)C(=O)NCCCC[C@@H]3NC(=O)[C@H](CCC(=O)N[C@@H](Cc4c[nH]c5ccccc45)C(=O)O)NC3=O)[C@@H](NC(C)=O)C(O)O[C@@H]2CO)O[C@H](CO)[C@@H](O)[C@@H]1O` (stereo partly drawn) [Compound 33a, cyclo-L-Lys(N-acetyl-Glycosamine-N-acetyl-muramil)-L-Glu-(L-Trp-OH)], the “adjuvant activity (FIG. 4), doses at which active” value (shortened to “adjuvant activity (FIG. 4), doses”) in test [2] is listed as “active at 100 μg/kg”. Moreover, the entries for the “Anti-protein antibody titer (pooled sera)” value in test [2] (1 μg per animal), in test [2] (10 μg per animal) and in test [2] (setting [5]) were 4.8, 5.1 and 5.5, respectively. Also, the Stimulation index is reported as 2.9 in test [2] (1 μg per animal), 3.5 in test [2] (10 μg per animal) and 6.8 in test [2] (setting [6]). Further, the “Anti-protein antibody titer (for individual sera)” value in test [2] (setting [7]) is 5.1 (2×) and 4.2 and 5.4 (3×) and 4.1; in test [2] (setting [8]), 4.4 and 5.7 (4×) and 4.7 and 5.4; in test [2] (setting [9]), 4.8 (2×) and 5.4 and 5.1 (2×) and 6.4 and 5.7.

With `O=C(CC[C@H]1NC(=O)[C@@H](Cc2ccccc2)NC1=O)N[C@H](Cc1c[nH]c2ccccc12)C(=O)[O-].[Na+]` [cyclo-DPhe-DGlu-(DTrp-ONa)], in test [1] (Table 2, donor treated per os), the “% suppression” value worked out at 28% and the “Colony count CFU-8 - S per 10^5 cells M ± M” value stood at 8.1 ± 0.4 per 10^5 cells. For the same compound, in test [1] (setting [3]), the “% suppression” value turned out to be 28% and the “Colony count CFU-8 - S per 10^5 cells M ± m” value is on record as 8.1 ± 0.4 per 10^5 cells.

As to `CC(=O)N[C@H]1[C@H](O[C@H]2[C@H](O[C@H](C)C(=O)NCCCC[C@H]3NC(=O)[C@@H](CCC(=O)N[C@@H](Cc4c[nH]c5ccccc45)C(=O)O)NC3=O)[C@@H](NC(C)=O)C(O)O[C@@H]2CO)O[C@H](CO)[C@@H](O)[C@@H]1O` (stereo partly drawn) [Compound 33b, cyclo-D-Lys(N-acetyl-Glycosamine-N-acetyl-muramil)-D-Glu-(L-Trp-OH)], the “adjuvant activity (FIG. 4), doses” value in test [2] is “not an active compound”. For the same compound, the “Anti-protein antibody titer (pooled sera)” value is listed as 5.1 in test [2] (1 μg per animal), 5.4 in test [2] (10 μg per animal) and 4.8 in test [2] (setting [5]). Also, the Stimulation index in test [2] (1 μg per animal) stood at 3.5; in test [2] (10 μg per animal), 4.1; in test [2] (setting [6]), 2.9. The “Anti-protein antibody titer (for individual sera)” value in test [2] (setting [7]) is 5.2 and 4.8 (4×) and 4.5 and 5.1; in test [2] (setting [8]), 4.8 and 4.5 and 5.2 and 5.1 and 5.4 (2×) and 4.3; in test [2] (setting [9]), 4.8 and 5.4 (3×) and 4.2 and 5.1 (2×).

With “γDGlu-DTrp [Thymodepressin, reference compound]”, the “% suppression” value in test [1] (Table 2, donor treated i/p) was 55%; in test [1] (setting [10]), 51%; in test [1] (setting [3]) it was 0%; in test [1] (setting [11]) it was 33%; in test [1] (setting [12]), 41%; in test [1] (setting [13]) it was 52%. In addition, the “Colony count CFU-8 - S per 10^5 cells M ± M” value in test [1] (setting [4]) stood at 6.3 ± 0.6 per 10^5 cells. For the same compound, the “Colony count CFU-8 - S per 10^5 cells M ± m” value turned out to be 5.7 ± 0.4 per 10^5 cells in test [1] (setting [10]); 10.2 ± 0.3 per 10^5 cells in test [1] (setting [3]); 8.0 ± 0.5 per 10^5 cells in test [1] (setting [11]); 6.4 ± 0.5 per 10^5 cells in test [1] (setting [12]); 5.1 ± 0.2 per 10^5 cells in test [1] (setting [13]). Also, the “effect on CFU-S population in the bone marrow of intact mice” value in test [1] (text statement on Table 2) is listed as “decreased the CFU-S population in the bone marrow”.

On to `NCCCCC1NC(=O)C(CCC(=O)NC(Cc2c[nH]c3ccccc23)C(=O)O)NC1=O` [Compound 19, cyclo-L-Lys-L-Glu-(L-Trp-OH)], for which the “adjuvant activity (FIG. 4), doses” value in test [2] is “active at 100 μg/kg”.
